The values that follow come from publication PMC10683027, “Discovery of tert-Butyl Ester Based 6-Diazo-5-oxo-L-norleucine Prodrugs for Enhanced Metabolic Stability and Tumor Delivery” (Journal of Medicinal Chemistry, 2023).

In general, solubility refers to how much of the substance goes into solution per volume. The low end stands for little dissolved substance, the high end for much dissolved substance. The term EC50 denotes the midpoint of the concentration-response curve. Read a high EC50 as a less potent agent.

For series [1], the system named is hematologic malignancies. Further details: method as in PMID 13918321. The conditions noted are these: DON combination with standard 6-mercaptopurine (6-MP) therapy; cited from earlier work.
Details of series [2]: method as in PMID 13489662. The conditions noted are these: 2 weeks or more of DON therapy; cited from earlier work.
The conditions of series [3]: CES1–/–, mouse, 1 h, 10 μM.
Method: (§2) Briefly, intestinal tissue was homogenized over ice via probe sonication with 1:9 tissue to potassium phosphate buffer (0.1 M) conditions. Prodrugs were spiked in plasma or tissue homogenate at 10 μM final concentration with 0.2% DMSO v/v and incubated in triplicate for 0 and 60 min time points. At each time point, 100 μL of the sample was precipitated with 300 μL of methanol containing internal standard (IS; losartan, 0.5 μM). Precipitated samples were vortexed (30 s) and centrifuged at 10000g for 10 min at 4 °C. After centrifugation, 100 μL of supernatant was aliquoted and submitted for analysis. Prodrug disappearance over time was monitored by liquid chromatography–mass spectrometry (LC–MS) through peak area ratios between the analyte and internal standard.
(§3) Chromatographic analysis was performed on a Dionex ultra-high-performance LC system coupled with a Q Exactive Focus Orbitrap mass spectrometer (Thermo Fisher Scientific Inc., Waltham, MA). Separation was achieved using an Agilent Eclipse Plus column (100 × 2.1 mm i.d.; maintained at 35 °C) packed with a 1.8 μm C18 stationary phase. The mobile phase used was composed of 0.1% formic acid in acetonitrile and 0.1% formic acid in water with gradient elution, starting with 2.5% organic phase (from 0 to 0.25 min) and linearly increasing to 99% (from 0.25 to 1.25 min) and re-equilibrating to 2.5% by 4 min. The total run time for each analyte was 5 min. Pumps were operated at a flow rate of 0.4 mL/min. The mass spectrometer controlled by Xcalibur software 4.0.27.13 (Thermo Scientific) was operated with an HESI ion source in positive ionization mode for all compounds. Compounds were identified in the full-scan mode with m/z ranging from 75 to 1125.
The nature of series [4]: in vitro. The conditions noted are these: CES1–/–, mouse, plasma.
Method: as §2, §3
Series [5] can be described thus: in vitro. To be noted: CES1–/–, mouse, tissue homogenate.
Method: as §2, §3
The conditions of series [6]: CES1–/–, mouse, 1 h, 10 μM. The source holds these as a separate data set.
Method: as §2, §3
Series [7] can be described thus: Aqueous solubility assay in PBS buffer (pH 7.4). It is filed as physicochemical. The conditions noted are these: PBS buffer pH 7.4; 37 °C; 1 h. As to the method: (§1) The aqueous solubility was determined as previously reported with minor modifications.[48] Briefly, an excess amount of P11 or DRP-104 was added to PBS buffer (pH 7.4) and sonicated for 1 h at 37 °C to ensure saturation. After 1 h, the solution was filtered (0.45 μm PTFE), and the filtrate was diluted appropriately, and the concentration of each analyte was determined via LC–MS. Chemical stabilities of DRP-104 and P11 were done as previously described[18] with modifications. For chemical stability, prodrugs were spiked (10 μM) in buffer at pH 7.4 and incubated at 37 °C for 24 h. Prodrug disappearance was monitored using the developed HRMS methods.

Series [8] deals with P493B lymphoma cells. Nature of the series: Cell viability assay. To be noted: Homo sapiens, 72 h, 72 h incubation. It is filed as cell-based. Here is the method: Cell proliferation assays were performed as we have previously described.[19] Briefly, P493B lymphoma cells were plated in 96-well plates at a density of 20 000 cells/well in a final volume of 100 μL of growth media. P11, or DRP-104, was added to cells in half-log serial dilutions with a final concentration of 0.2% DMSO. Cells were allowed to proliferate for 72 h, and thereafter, 20 μL of CellTiter 96 AQueous (Promega no. 3580) was added per well and incubated for 2 h. Absorbance was measured at 490 nm. Relative cell viability was calculated from the difference between untreated cell wells (100%) and media well without cells (0%).

Series [9] can be described thus: Metabolic stability in mouse intestinal homogenate (GIh). The conditions noted are these: for remaining at 1 h, 10 µM: CES1–/–, mouse, intestinal homogenate; for Intestinal homogenate: supplementary CSV, unit not given, matches Table 1 % remaining at 1 h, in %.
The subject of series [10] is P493B lymphoma cells suspended in human plasma. In words: Human tumor cell to plasma partitioning assay. It is filed as cell-based. The conditions noted are these: 20 μM; 1 h; human plasma fraction. Here is the method: Human tumor cell to plasma partitioning assays were conducted as we have previously described.[25] Briefly, P493B lymphoma cells were grown at 37 °C, in a humidified atmosphere with 5% CO2. Cell confluency was estimated, and cells were harvested after achieving >80% confluency and centrifuged at 200g for 5 min at 25 °C. The obtained cell pellet was resuspended in 20 mL of Dulbecco’s phosphate-buffered saline (DPBS; Gibco, USA, cat. no. 14-190-144) maintained at 37 °C, and cell count was determined using an automated cell counter (Bio-Rad, USA). Cell suspension in DPBS was further centrifuged at 200g for 5 min at 25 °C, and the cell pellet was resuspended in human plasma (Innovative Research, USA) for partitioning assessment. The final cell density after resuspending in plasma was 10 million cells/mL of plasma. Partitioning assessment was performed in triplicate. Preincubated (37 °C for 5 min) cell–plasma suspension was spiked with DRP-104 or P11 at a final concentration of 20 μM and incubated at 37 °C for 1 h. Following incubation, a 1 mL aliquot of cell–plasma suspension was centrifuged at 1000g for 5 min at 4 °C, and supernatant plasma as well as the cell pellet was collected and stored at −80 °C until bioanalysis. Both plasma and cell pellet fractions were analyzed for intact prodrug and DON levels. […]

Details of series [11]: method as in printed. To be noted: background statement; ref not given; cited from earlier work.
Series [12] can be described thus: Metabolic stability in mouse plasma. To be noted: for remaining at 1 h, 10 µM: CES1–/–, mouse, plasma; for Plasma: supplementary CSV, unit not given, matches Table 1 % remaining at 1 h, in %.
Series [13] is described as follows: Chemical (aqueous) stability in buffer pH 7.4. To be noted: 10 μM, pH 7.4 PBS, 37 °C, 24 h, HRMS/LCMS. The format is physicochemical. As to the method:
as §1

On the set-up of series [14]: method as in PMID 36383674. The conditions noted are these: cited from earlier work.
Series [15] is described as follows: Single time point pharmacokinetic screening, released DON in plasma and tumor of EL4 tumor-bearing mice. It is filed as in vivo, C57BL/6/CES1–/– mice. The conditions noted are these: 1 mg/kg DON equivalent SC; 30 min. Here is the method: C57BL/6/CES1^–/– mice were obtained as a gift from the United States Army Medical Research Institute of Chemical Defense, Maryland, USA; breeding was performed in the Johns Hopkins animal facility and was conducted according to protocols reviewed and approved by the Johns Hopkins Institutional Animal Care and Use Committee in compliance with the Association for Assessment and Accreditation of Laboratory Animal Care International (AAALAC) and the Public Health Service Policy on the Humane Care and Use of Laboratory Animals (PHS Policy). Male and female C57BL/6 mice (weighing between 25 and 30 g) 6–8 weeks of age were used for the study. The animals were maintained on a 12 h light–dark cycle with ad libitum access to food (certified laboratory food: Teklad 18% Protein Extruded Rodent Diet) and water. EL4 mouse lymphoma cells were obtained as a gift from the laboratory of Dr. Jonathan Powell (Johns Hopkins University, Baltimore, MD) and maintained in RPMI 1640 medium 1X (Corning, cat. no. 10-040-CV) with 10% (v/v) fetal bovine serum (Corning, cat. no. 35-011-CV), 1% (v/v) antimycotic/antibiotic (Corning, cat. no. 30-004-CI), 2 mM L-glutamine (Corning, cat. no. 25-005-CI), and 10 mM HEPES (Corning, cat. no. 25-060-CI) in a 5% (v/v) CO2 and 95% (v/v) air incubator prior to subcutaneous (SC) injection (1 × 10^6 cells in 0.2 mL of phosphate-buffered saline) on the flank of each mouse. […]

≈ marks a conversion by molar mass, not a printed value. Like-named read-outs stand apart in the source and are kept apart here.

Turning to `[N-]=[N+]=CC(=O)CC[C@H](N)C(=O)O` [DON, 6-Diazo-5-oxo-L-norleucine], the “patients with complete bone marrow remissions” value in series [1] is on record as 42%. Also, in series [2], the “patients with disease stability or regression” value was 66%.
In [3], `CC(C)(C)OC(=O)[C@H](CCC(=O)C=[N+]=[N-])NC(=O)[C@H](Cc1c[nH]c2ccccc12)NC(=O)C12CCN(CC1)CC2` [Prodrug P8, tert-Butyl (S)-2-((S)-3-(1H-Indol-3-yl)-2-(quinuclidine-4-carboxamido)propanamido)-6-diazo-5-oxohexanoate] yielded an Intestinal homogenate of 71 ± 0. Further, the amount remaining at 1 h, 10 µM stood at 106 ± 2% in series [4] and 71% in series [5]. In addition, the Plasma in series [6] is reported as 106 ± 2.
`CC(=O)N[C@@H](Cc1c[nH]c2ccccc12)C(=O)N[C@@H](CCC(=O)C=[N+]=[N-])C(=O)OC(C)C` [DRP-104, isopropyl (S)-2-((S)-2-acetamido-3-(1H-indol-3-yl)-propanamido)-6-diazo-5-oxo-hexanoate, reference compound]: the concentration in solution in [7] (solubility at 1 h) was 240 ± 30 µg/mL (≈ 544 µM). The EC50 in series [8] was roughly 1000 nM. For the same compound, in [9], the share remaining at 1 h, 10 µM came to 0% and the Intestinal homogenate is 0 ± 0. Further, the “stability and DON release in human plasma” value in series [10] is listed as “stable in human plasma with no DON release”. Also, the “aqueous solubility (intrinsic)” value in series [11] was less than 1000 µg/mL. Further, in series [12], the share remaining at 1 h, 10 µM came out at 94 ± 1% and the Plasma turned out to be 94 ± 1. Further, the “chemical stability in buffer” value in series [13] is “remained intact without any degradation”. Also, the “chemical stability in buffer” value in [13] (listed as DRP 104) is “no degradation”. The “fold greater delivery of DON to tumor versus GI tissues” value in [14] was 11.
Take `CN(C)CC(=O)N[C@@H](CCc1ccccc1)C(=O)N[C@@H](CCC(=O)C=[N+]=[N-])C(=O)OC(C)(C)C` [Prodrug P14, tert-Butyl (S)-6-Diazo-2-((S)-2-(2-(dimethylamino)acetamido)-4-phenylbutanamido)-5-oxohexanoate]: in [9], the fraction remaining at 1 h, 10 µM was 97 ± 3% and the Intestinal homogenate was 97 ± 3. Also, in series [12], the amount remaining at 1 h, 10 µM came out at 102 ± 2% and the Plasma is given as 102 ± 2. For the same compound, in series [15], the “preferential DON tumor versus plasma delivery” value is recorded as “maintained the preferential DON tumor versus plasma delivery”.
